Patent US20250282795A1, “EGFR Inhibitors in cancer treatment” (Celyn Therapeutics, Inc., priority 2022, published 2025)

How the values were obtained:
Type in all cases: cell-based
[1] = system: Ba/F3 (L858R + T790M); assay: Cellular growth inhibition assay (CellTiter-Glo), Ba/F3 (L858R+T790M); settings: Mus musculus, BaF3, 72 h; 3 days of incubation
Experimental: (§1) Example E. Cellular Growth Inhibition Assay
(§2) Ba/F3(Empty vector) (Signosis), Ba/F3(Wild type) (Signosis), Ba/F3(L^858R+T790M) (Signosis), Ba/F3(A767_dupASV) (Signosis), Ba/F3(D770_N771insSVD) (Signosis), Ba/F3(H773_V774insNPH) (Signosis) were seeded at a density of 4000 cells per well in a CellBIND® 384-well Flat Clear Bottom Black Polystyrene Microplates (Coming, USA, Cat #3770) in 45 μl total volume of RPMI (PanEco, Cat #C330, Russia) with […] (HyClone, Cat #SV30160.03) and with 10 ng/ml rmIL-3 (RD systems, USA, Cat #403-ML-025) (for BaBF3(Empty vector)) and with 10 ng/ml rhEGF (ThermoFisher, USA, Cat #PHG0311L) (for BaCF3(Wild type)). 500× compounds solutions in DMSO (Sigma Cat #D2650) were prepared into Cmpnds plate (DiamondWell Plate, Axigen, Cat #P-384-120SQ-C—S) and DMSO only control was included. 1.l of 500× compounds (Cmpnds plate) was added to 49 µl of culture medium into Dilution plate (Diamond Well Plate, Axigen, Cat #P-384-120SQ-C—S), mixed and then 5 μl of 10× compounds solutions were transferred to cells followed by centrifugation at 100 g for 1 min. Final DMSO concentration was 0.2% o. After 3 days of incubation 10.l of CellTiter-Glo (Promega, CAT #G7572) were added to the cells, plate was centrifuged at 100 g for 1 min and luminescence signal was measured using Microplate Reader (CLARIOStar).

[2] = system: Ba/F3 (A767_dupASV); assay: Cellular growth inhibition assay (CellTiter-Glo), Ba/F3 (A767_dupASV); settings: Mus musculus, BaF3, 72 h; 3 days of incubation; read-out: Ba/F3 (A767_dup ASV) CC50
Experimental: as §1, §2

[3] = system: Ba/F3 (D770_N771insSVD); assay: Cellular growth inhibition assay (CellTiter-Glo), Ba/F3 (D770_N771insSVD); settings: Mus musculus, BaF3, 72 h; 3 days of incubation; read-out: Ba/F3 (D770_N771 insSVD) CC50
Experimental: as §1, §2

[4] = system: Ba/F3 (H773_V774insSVD); assay: Cellular growth inhibition assay (CellTiter-Glo), Ba/F3 (H773_V774insSVD); settings: Mus musculus, BaF3, 72 h; 3 days of incubation; read-out: Ba/F3 (H773_V774 insSVD) CC50
[5] = Cellular growth inhibition assay (CellTiter-Glo), Ba/F3 (Empty vector); settings: mouse, Ba/F3 cells with empty vector; Ba/F3 (Empty vector) with 10 ng/ml rmIL-3, 3 days of incubation
Experimental: as §1, §2

SMILES	CC50 [1] [µM]	CC50 [2] [µM]	CC50 [3] [µM]	CC50 [4] [µM]	CC50 at 3 days [5] [µM]
COc1c(F)cccc1Nc1c2[nH]c3c1C(=O)NC[C@@H]3CCCN1CC[C@@H](COc3cnccc3-2)C1 (stereo in doubt) [Compound 162, 20-[(3-Fluoro-2-methoxyphenyl)amino]-6,7,8,9,11,12,13,13a,14,15-decahydro-7,10-methano-17,19-methenodipyrido[3,4-b:4′,3′-f][1,5,11]oxadiazacyclopentadecin-16(18H)-one]	> 10	> 10	> 10	> 10	> 10
COc1c(F)cccc1Nc1c2[nH]c3c1C(=O)NC[C@H]3CCCN1CC[C@@H](COc3cnccc3-2)C1 (stereo in doubt) [Compound 163, 20-[(3-Fluoro-2-methoxyphenyl)amino]-6,7,8,9,11,12,13,13a,14,15-decahydro-7,10-methano-17,19-methenodipyrido[3,4-b:4′,3′-f][1,5,11]oxadiazacyclopentadecin-16(18H)-one]	> 10	0.01 to 0.1	0.1 to 1	0.1 to 1	> 10
COc1c(F)cccc1Nc1c2[nH]c3c1C(=O)NCC3CCCN1CCCC(COc3cnccc3-2)C1 (centres unmarked) [Compound 12, 21-[(3-Fluoro-2-methoxyphenyl)amino]-7,8,9,10,12,13,14,14a,15,16-decahydro-6H-7,11-methano-18,20-methenodipyrido[3,4-b:4′,3′-f][1,5,11]oxadiazacyclohexadecin-17(19H)-one]	> 10	0.1 to 1	1 to 10	> 10	> 10
COc1c(F)cccc1Nc1c2[nH]c3c1C(=O)NCC3CCCCCOc1cnccc1-2 (centres unmarked) [Compound 101, 1^3-((3-Fluoro-2-methoxyphenyl)amino)-1^4,1^5,1^6,1^7-tetrahydro-l^1H-3-oxa-1(2,7)-pyrrolo[3,2-c]pyridina-2(4,3)-pyridinacyclooctaphan-1^4-one]	1 to 10	0.01 to 0.1	0.1 to 1	0.1 to 1	> 10
COc1c(F)cccc1Nc1c2[nH]c3c1C(=O)NCC3CCCCN1CC(COc3cnccc3-2)C1 (centres unmarked) [Compound 123, 20-(3-fluoro-2-methoxyanilino)-7,8,11,12,13,13a,14,15-octahydro-6H,10H-7,9-methano-17,19-(metheno)dipyrido[3,4-b: 4′,3′-f][1,5,12]oxadiazacyclopentadecin-16(18H)-one]	0.1 to 1	0.001 to 0.01	0.01 to 0.1	0.1 to 1	1 to 10
COc1c(F)cccc1Nc1c2[nH]c3c1C(=O)NC(CCCCOCCOc1cnccc1-2)C3 (centres unmarked) [Compound 133, 20-(3-fluoro-2-methoxyanilino)-2,3,5,6,7,8,9,10-octahydro-9,13-methano-12,15-(metheno)pyrido[3,4-e][1,4,8,12]dioxadiazacycloheptadecin-11(14H)-one]	> 10	1 to 10	> 10	> 10	> 10
COc1c(F)cccc1Nc1c2[nH]c3c1C(=O)NCC3CC=CCN1CCC(CC1)COc1cnccc1-2 (centres unmarked) [Compound 135, 21-(3-fluoro-2-methoxyanilino)-6,7,8,9,14,14a,15,16-octahydro-11H-7,10-ethano-18,20-(metheno)dipyrido[3,4-b: 4′,3′-f][1,5,12]oxadiazacyclohexadecin-17(19H)-one]	> 10	> 10	> 10	> 10	> 10
COc1c(F)cccc1Nc1c2[nH]c3c1C(=O)NCC3CCCCN1CCC(CC1)COc1cnccc1-2 (centres unmarked) [Compound 136, 21-[(3-Fluoro-2-methoxyphenyl)amino]-6,7,8,9,12,13,14,14a,15,16-decahydro-11H-7,10-ethano-18,20-methenodipyrido[3,4-b:4′,3′-f][1,5,12]oxadiazacyclohexadecin-17(19H)-one]	> 10	1 to 10	> 10	> 10	> 10
COc1c(F)cccc1Nc1c2[nH]c3c1C(=O)NCC3CCCOCCCCCCN1CCC(CC1)Oc1cnccc1-2 (centres unmarked) [Compound 137, 28-(3-fluoro-2-methoxyanilino)-1,2,13,14,16,17,18,19,20,21,23,24,25,25a-tetradecahydro-12H-12,15-ethano-4,6-(metheno)dipyrido[3,4-b: 4′,3′-f][1,11,5,18]dioxadiazacyclohenicosin-3(5H)-one]	1 to 10	0.1 to 1	1 to 10	1 to 10	> 10
COc1c(F)cccc1Nc1c2[nH]c3c1C(=O)NCC3CC(=O)N1CC(CCOc3cnccc3-2)C1 (centres unmarked) [Compound 139, 19-(3-fluoro-2-methoxyanilino)-6,7,8,9,12,12a,13,14-octahydro-11H-8,10-methano-16,18-(metheno)dipyrido[3,4-b: 4′,3′-f][1,5,10]oxadiazacyclotetradecine-11,15(17H)-dione]	> 10	0.1 to 1	1 to 10	1 to 10	> 10
COc1c(F)cccc1Nc1c2[nH]c3c1C(=O)NCC3CC(=O)N[C@@H](C)C(=O)NCCCOc1cnccc1-2 (stereo partly drawn) [Compound 140, (11S)-21-(3-fluoro-2-methoxyanilino)-11-methyl-6,7,8,9,11,12,14,14a,15,16-decahydro-18,20-(metheno)dipyrido[3,4-k: 4′,3′-o][1,5,8,13]oxatriazacyclohexadecine-10,13,17(19H)-trione]	> 10	1 to 10	> 10	> 10	> 10
COc1c(F)cccc1Nc1c2[nH]c3c1C(=O)NCC3CC(=O)N[C@H](C)C(=O)NCCCOc1cnccc1-2 (stereo partly drawn) [Compound 141, (11R)-21-(3-fluoro-2-methoxyanilino)-11-methyl-6,7,8,9,11,12,14,14a,15,16-decahydro-18,20-(metheno)dipyrido[3,4-k: 4′,3′-o][1,5,8,13]oxatriazacyclohexadecine-10,13,17(19H)-trione]	> 10	0.1 to 1	1 to 10	> 10	> 10
COc1c(F)cccc1Nc1c2[nH]c3c1C(=O)NCC3CCCOCCNCCCOc1cnccc1-2 (centres unmarked) [Compound 143, 22-(3-fluoro-2-methoxyanilino)-6,7,8,9,10,11,13,14,15,15a,16,17-dodecahydro-19,21-(metheno)dipyrido[3,4-i: 4′,3′-m][1,8,4,12]dioxadiazacycloheptadecin-18(20H)-one]	> 10	> 10	> 10	> 10	> 10
COc1c(F)cccc1Nc1c2[nH]c3c1C(=O)NC[C@H]3CCCN1CCO[C@H](COc3cnccc3-2)C1 [Compound 158, (7S)-21-[(3-Fluoro-2-methoxyphenyl)amino]-6,7,9,10,12,13,14,14a,15,16-decahydro-7,11-methano-18,20-methenodipyrido[3,4-k:4′,3′-o][1,4,7,13]dioxadiazacyclohexadecin-17(19H)-one]	> 10	0.1 to 1	1 to 10	1 to 10	1 to 10
COc1c(F)cccc1Nc1c2[nH]c3c1C(=O)NCC3CCCCN(C(C)C)CCOc1cnccc1-2 (centres unmarked) [Compound 159, 19-(3-fluoro-2-methoxyanilino)-8-(propan-2-yl)-6,7,8,9,10,11,12,12a,13,14-decahydro-16,18-(metheno)dipyrido[3,4-i: 4′,3′-m][1,4,11]oxadiazacyclotetradecin-15(17H)-one]	> 10	0.1 to 1	1 to 10	1 to 10	> 10
COc1c(F)cccc1Nc1c2[nH]c3c1C(=O)NCC3CCCN1CC(COc3cnccc3-2)C1 (centres unmarked) [Compound 160, 19-[(3-Fluoro-2-methoxyphenyl)amino]-7,8,10,11,12,12a,13,14-octahydro-6H-7,9-methano-16,18-methenodipyrido[3,4-b:4′,3′-f][1,5,11]oxadiazacyclotetradecin-15(17H)-one]	> 10	0.1 to 1	1 to 10	1 to 10	> 10
